Results as given in US12421225B2, “Heteroaromatic amide derivative and medicament containing the same” (KAKEN PHARMACEUTICAL CO., LTD., priority 2018, dated 2025).
Structures can show the parent of a compound that is named as a salt.

Experiments:
[1] = biological target: human Nav1.7 (Homo sapiens (Human), UniProt Q15858); assay: Human Nav1.7 inhibitory activity evaluation (automated patch clamp QPatch16X, HEK293A cells stably expressing human Nav1.7 and human Navβ1); type: cell-based
How it was run: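 QPatch16X whole-cell recordings at room temperature from HEK293A cells stably expressing human Nav1.7 with Navβ1, CsF-based internal solution, pH 7.4 external, 0.1% DMSO. From −100 mV holding, protocol included a 15 s hold at a potential inactivating ~30-40% of channels; IC50 from inward current at the second −10 mV pulse.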

[2] = tested on: male ICR mice; assay: Effect on acute pain (capsaicin-induced pain-related behavior, hind paw); type: in vivo
Procedure: Test Example 3: Effect on Acute Pain
Six-week old male ICR mice were used for the test. Test compounds were orally administered at 1-10 mg/kg and the mice were habituated to a clear observation cage for 60 minutes. The mice were lightly restrained under no anesthesia and 20 μL of 80 μg/mL (0.8% ethanol-saline) capsaicin solution was injected subcutaneously into the plantar surface of rihgt hind paw of mice. The mice were returned to the observation cage and, from just after that, the duration of pain-related behavior (licking, shaking) occurring in the right hind limb was measured as the reaction time for 5 minutes.
The inhibition rate of the test compound was determined by the following calculation formula. Test compound inhibition rate (%)=100×[1−(response time of test compound administered group/response time of vehicle control group)]

[3] = biological target: human Nav1.5 (Homo sapiens (Human), UniProt Q14524); assay: Human Nav1.5 inhibitory activity evaluation (automated patch clamp QPatch16X, HEK293 cells stably expressing human Nav1.5); type: cell-based
human Nav1.5, sequence (Q14524 whole entry): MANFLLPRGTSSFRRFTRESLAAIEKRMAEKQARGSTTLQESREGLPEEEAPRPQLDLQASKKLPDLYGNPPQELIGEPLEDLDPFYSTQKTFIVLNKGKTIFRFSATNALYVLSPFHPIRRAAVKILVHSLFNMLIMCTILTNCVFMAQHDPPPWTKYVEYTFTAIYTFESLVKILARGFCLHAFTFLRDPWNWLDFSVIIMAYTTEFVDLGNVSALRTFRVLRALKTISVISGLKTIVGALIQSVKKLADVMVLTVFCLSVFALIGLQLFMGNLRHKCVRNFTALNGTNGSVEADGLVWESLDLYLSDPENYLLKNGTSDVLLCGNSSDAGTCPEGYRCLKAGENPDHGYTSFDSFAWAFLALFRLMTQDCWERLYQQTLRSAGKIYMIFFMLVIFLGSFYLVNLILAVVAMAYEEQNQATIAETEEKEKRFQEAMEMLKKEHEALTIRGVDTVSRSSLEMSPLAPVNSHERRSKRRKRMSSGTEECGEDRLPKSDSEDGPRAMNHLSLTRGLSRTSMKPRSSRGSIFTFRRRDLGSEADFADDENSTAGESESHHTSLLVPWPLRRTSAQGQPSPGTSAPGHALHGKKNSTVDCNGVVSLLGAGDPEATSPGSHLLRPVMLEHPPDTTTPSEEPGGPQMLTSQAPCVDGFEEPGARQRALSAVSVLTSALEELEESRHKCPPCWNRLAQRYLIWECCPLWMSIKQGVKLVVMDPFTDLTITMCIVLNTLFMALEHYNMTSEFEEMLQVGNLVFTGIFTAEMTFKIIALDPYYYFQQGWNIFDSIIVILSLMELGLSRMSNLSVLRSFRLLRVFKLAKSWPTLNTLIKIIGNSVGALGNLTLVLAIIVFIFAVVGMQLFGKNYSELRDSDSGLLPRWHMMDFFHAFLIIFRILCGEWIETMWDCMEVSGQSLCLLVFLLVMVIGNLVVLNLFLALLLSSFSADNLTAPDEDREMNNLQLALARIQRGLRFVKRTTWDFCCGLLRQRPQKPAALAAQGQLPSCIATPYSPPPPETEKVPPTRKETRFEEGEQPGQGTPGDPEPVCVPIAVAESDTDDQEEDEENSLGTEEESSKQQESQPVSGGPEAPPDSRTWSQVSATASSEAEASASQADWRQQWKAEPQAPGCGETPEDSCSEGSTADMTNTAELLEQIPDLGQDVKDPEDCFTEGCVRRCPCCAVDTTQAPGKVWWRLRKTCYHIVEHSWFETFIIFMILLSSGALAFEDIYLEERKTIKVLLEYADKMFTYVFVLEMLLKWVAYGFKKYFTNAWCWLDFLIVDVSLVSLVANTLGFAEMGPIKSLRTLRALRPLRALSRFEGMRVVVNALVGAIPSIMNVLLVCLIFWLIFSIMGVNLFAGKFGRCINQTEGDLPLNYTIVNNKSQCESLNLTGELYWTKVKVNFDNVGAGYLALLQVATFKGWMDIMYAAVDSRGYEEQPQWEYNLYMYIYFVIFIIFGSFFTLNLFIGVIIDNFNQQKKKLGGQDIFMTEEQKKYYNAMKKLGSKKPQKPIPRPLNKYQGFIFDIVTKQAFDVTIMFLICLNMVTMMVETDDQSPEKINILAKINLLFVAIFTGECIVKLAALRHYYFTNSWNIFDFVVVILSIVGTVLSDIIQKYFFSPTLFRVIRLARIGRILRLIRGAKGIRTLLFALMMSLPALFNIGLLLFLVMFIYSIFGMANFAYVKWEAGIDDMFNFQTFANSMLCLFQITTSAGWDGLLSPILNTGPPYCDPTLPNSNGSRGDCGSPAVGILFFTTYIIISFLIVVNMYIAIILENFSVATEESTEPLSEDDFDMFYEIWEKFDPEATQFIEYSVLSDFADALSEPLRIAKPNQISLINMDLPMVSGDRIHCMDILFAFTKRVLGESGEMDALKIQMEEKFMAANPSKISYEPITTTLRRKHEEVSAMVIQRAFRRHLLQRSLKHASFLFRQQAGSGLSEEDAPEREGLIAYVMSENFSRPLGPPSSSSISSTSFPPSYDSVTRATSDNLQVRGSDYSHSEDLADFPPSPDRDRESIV
How it was run: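 Whole-cell automated patch clamp at room temperature on HEK293 stably expressing human Nav1.5; holding −80 mV, 20 consecutive cardiomyocyte action-potential-like test pulses before and after compound (0.1% DMSO). Inhibition measured on inward current at 20th pulse; IC50 from concentration-response curve.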

[4] = tested on: male ICR mice; assay: Effect on a neuropathic pain (L5 spinal nerve cut, von Frey 50% pain threshold); type: in vivo; conditions: allodynia-developed mice, dose of 10 mg/kg or less, single oral administration
Procedure: Test Example 4: Effect on a Neuropathic Pain
Five-week old male ICR mice were used for the test. The skin and muscles were incised to expose the sixth lumbar vertebra under isoflurane anesthesia, and the right transverse process was removed. The L5 spinal nerve was isolated from the surrounding tissue to cut out, and then the incision site was sutured.
The 50% pain threshold of the plantar surface was determined by referring to the method of Chaplan S R et al. (J Neurosci Methods 1994, 53: 55-63) using von Frey filaments (0.008 g, 0.02 g, 0.04 g, 0.07 g, 0.16 g, 0.4 g and 0.6 g). First, the mice were placed in a measurement case with a lattice scaffold and habituatedd until the animal settled; 0.07 g of filament was pressed against the plantar surface for about 3 seconds. If withdrawal behavior was observed, the filament with the stimulation intensity one level lower was used to apply stimulation, and conversely, if the withdrawal behavior was not detected, the filament with the stimulation intensity one level higher was used to apply stimulation. By repeating this operation, starting from 2 times before and after the presence or absence of escape behavior changed, the results for a total of 6 times were recorded, to calculate a 50% pain threshold using the following calculation formula. 50% pain threshold (g)=(10^[Xf+κδ]/10000)
Xf is the value of the stimulus intensity of the filament used in the last stimulation (log value), κ is the value derived from the pattern of presence/absence of withdrawal behavior for 6 times, and δ is the difference in stimulus intensity (log value) between the filaments used (here 0.365).

[5] = HEK293A cells stably expressing human Nav1.7 and human Navβ1, automated patch clamp QPatch16X
[6] = HEK293 cells stably expressing human Nav1.5, automated patch clamp QPatch16X
[7] = human Nav1.7, automated patch clamp
[8] = human Nav1.5, automated patch clamp

human Nav1.7, sequence (Q15858 whole entry): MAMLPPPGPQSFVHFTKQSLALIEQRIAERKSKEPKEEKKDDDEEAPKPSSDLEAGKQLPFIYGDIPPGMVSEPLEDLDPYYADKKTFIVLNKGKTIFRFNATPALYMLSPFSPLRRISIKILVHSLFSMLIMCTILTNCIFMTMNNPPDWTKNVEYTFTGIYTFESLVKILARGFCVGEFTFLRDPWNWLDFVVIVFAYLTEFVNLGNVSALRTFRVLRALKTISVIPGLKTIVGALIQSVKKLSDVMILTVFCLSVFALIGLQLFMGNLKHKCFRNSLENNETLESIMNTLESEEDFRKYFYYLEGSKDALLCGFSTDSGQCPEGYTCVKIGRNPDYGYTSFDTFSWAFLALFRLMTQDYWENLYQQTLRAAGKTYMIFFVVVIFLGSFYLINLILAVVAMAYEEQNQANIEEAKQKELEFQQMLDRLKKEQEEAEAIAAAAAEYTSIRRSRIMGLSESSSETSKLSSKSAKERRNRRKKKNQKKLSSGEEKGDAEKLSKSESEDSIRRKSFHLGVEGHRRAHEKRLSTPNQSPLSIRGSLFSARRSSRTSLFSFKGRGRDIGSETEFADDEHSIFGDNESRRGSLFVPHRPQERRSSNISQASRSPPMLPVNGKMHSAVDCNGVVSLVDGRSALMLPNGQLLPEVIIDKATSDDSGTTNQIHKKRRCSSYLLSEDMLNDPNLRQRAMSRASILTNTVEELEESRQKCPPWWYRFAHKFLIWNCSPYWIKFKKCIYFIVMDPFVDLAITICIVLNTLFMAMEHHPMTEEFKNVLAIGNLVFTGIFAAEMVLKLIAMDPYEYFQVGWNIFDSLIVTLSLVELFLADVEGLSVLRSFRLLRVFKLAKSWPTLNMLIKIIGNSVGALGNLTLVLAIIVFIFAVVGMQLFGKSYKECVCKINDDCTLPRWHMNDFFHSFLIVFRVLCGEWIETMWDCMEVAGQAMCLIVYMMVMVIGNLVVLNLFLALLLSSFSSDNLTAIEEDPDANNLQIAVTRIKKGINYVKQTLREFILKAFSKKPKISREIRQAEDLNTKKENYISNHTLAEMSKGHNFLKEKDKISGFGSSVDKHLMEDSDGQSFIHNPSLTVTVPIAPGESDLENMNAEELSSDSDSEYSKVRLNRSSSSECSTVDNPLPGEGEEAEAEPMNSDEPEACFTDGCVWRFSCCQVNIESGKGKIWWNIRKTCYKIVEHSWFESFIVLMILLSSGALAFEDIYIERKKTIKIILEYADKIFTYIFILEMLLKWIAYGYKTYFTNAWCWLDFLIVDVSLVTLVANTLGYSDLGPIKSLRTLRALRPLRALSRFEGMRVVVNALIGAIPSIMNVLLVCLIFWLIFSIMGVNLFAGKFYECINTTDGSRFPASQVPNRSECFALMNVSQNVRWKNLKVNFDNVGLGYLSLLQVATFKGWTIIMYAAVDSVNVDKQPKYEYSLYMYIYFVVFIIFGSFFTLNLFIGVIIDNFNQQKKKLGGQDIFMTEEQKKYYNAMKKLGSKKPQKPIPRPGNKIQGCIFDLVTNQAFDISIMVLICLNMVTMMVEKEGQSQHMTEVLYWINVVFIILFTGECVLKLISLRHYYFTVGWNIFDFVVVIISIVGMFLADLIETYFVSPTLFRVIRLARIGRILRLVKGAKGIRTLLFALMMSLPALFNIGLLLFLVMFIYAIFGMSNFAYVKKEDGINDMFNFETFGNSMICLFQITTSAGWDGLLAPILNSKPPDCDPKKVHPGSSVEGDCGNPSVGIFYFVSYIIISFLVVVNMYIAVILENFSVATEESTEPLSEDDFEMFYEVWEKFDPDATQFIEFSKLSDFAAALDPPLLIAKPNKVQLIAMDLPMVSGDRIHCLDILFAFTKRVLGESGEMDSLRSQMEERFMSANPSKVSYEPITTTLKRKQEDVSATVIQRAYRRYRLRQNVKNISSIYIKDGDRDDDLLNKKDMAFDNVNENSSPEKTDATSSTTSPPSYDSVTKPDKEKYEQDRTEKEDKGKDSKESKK
human Nav1.7, sequence (Q07699 19-218 partner): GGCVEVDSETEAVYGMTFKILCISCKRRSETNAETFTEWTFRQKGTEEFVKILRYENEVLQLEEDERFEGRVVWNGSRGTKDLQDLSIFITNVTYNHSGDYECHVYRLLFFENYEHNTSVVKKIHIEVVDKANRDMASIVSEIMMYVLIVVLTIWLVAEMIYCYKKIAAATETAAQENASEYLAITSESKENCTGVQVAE

COc1cc(C2CCn3nc(C(=O)N[C@H]4COc5ccc(C#N)cc5C4)cc3O2)ccn1 (single isomer, unassigned) [74 (isomer A)] was tested, and the IC50 [1, 5] was less than 1 µM, the “Inhibition rate (%)” value [2] was “A (Compounds with an inhibition rate of 30% or more are indicated by the letter “A”)” and the IC50 [3, 6] was no less than 3 µM.

CCCOCC1CCn2nc(C(=O)N[C@H]3COc4ccc(C#N)cc4C3)cc2O1 (single isomer, unassigned) [101 (isomer A)] was tested, and the IC50 [1, 5] was less than 1 µM, the “Inhibition rate (%)” value [2] was “C (compounds with an inhibition rate of 10% or more but less than 20% is indicated by the letter “C”)” and the IC50 [3, 6] was no less than 3 µM.

N#Cc1ccc2c(c1)C[C@@H](NC(=O)c1cc3n(n1)CCC(COCC1CC1)O3)CO2 (single isomer, unassigned) [103 (isomer A)] was tested, and the IC50 [1, 5] was less than 1 µM, the “Inhibition rate (%)” value [2] was “A (Compounds with an inhibition rate of 30% or more are indicated by the letter “A”)” and the IC50 [3, 6] was no less than 3 µM. The “50% pain threshold (antiallodynic effect)” value (shortened to “50% pain threshold”) [4] was “increased the 50% pain threshold”.

For N#Cc1ccc2c(c1)C[C@@H](NC(=O)c1cc3n(n1)CCC(COCC(F)(F)F)O3)CO2 (single isomer, unassigned) [115 (isomer A)], the IC50 [1, 5] was less than 10 µM, the “Inhibition rate (%)” value [2] was “A (Compounds with an inhibition rate of 30% or more are indicated by the letter “A”)” and the IC50 [3, 6] was no less than 3 µM.

O=C(N[C@H]1COc2ccc(COCC(F)(F)F)cc2C1)c1cc2n(n1)CCC(COCC(F)(F)F)O2 (single isomer, unassigned) [129 (isomer A)] was tested, and the IC50 [1, 5] was less than 1 µM, the “Inhibition rate (%)” value [2] was “A (Compounds with an inhibition rate of 30% or more are indicated by the letter “A”)” and the IC50 [3, 6] was no less than 3 µM.

N#Cc1ccc2c(c1)C[C@@H](NC(=O)c1cc3n(n1)CCC(COC(F)(F)F)O3)CO2 (single isomer, unassigned) [134 (isomer A)] was tested, and the IC50 [1, 5] was less than 1 µM, the “Inhibition rate (%)” value [2] was “A (Compounds with an inhibition rate of 30% or more are indicated by the letter “A”)” and the IC50 [3, 6] was 1 to 3 µM. For the same molecule, the “50% pain threshold” value [4] was “increased the 50% pain threshold”.

For O=C(N[C@H]1COc2ccc(C(F)(F)F)cc2C1)c1cc2n(n1)CCC(C(F)F)O2 (single isomer, unassigned) [161 (isomer A)], the IC50 [1, 7] was less than 1 µM, the “Inhibition rate (%)” value [2] was “A (Compounds with an inhibition rate of 30% or more are indicated by the letter “A”)” and the IC50 [3, 8] was no less than 3 µM. The “50% pain threshold” value [4] was “increased the 50% pain threshold”.

In the case of COc1ncc(-c2ccc3c(c2)C[C@@H](NC(=O)c2cc4n(n2)CC(CCOCC2CC2)O4)CO3)cn1 (single isomer, unassigned) [204 (isomer A)], the IC50 [1, 7] is reported as less than 1 µM, the “Inhibition rate (%)” value [2] is reported as “A (Compounds with an inhibition rate of 30% or more are indicated by the letter “A”)” and the IC50 [3, 8] is reported as no less than 3 µM.

N#Cc1ccc2c(c1)C[C@@H](NC(=O)c1cc3n(n1)CC(CCSCC(F)(F)F)O3)CO2 (single isomer, unassigned) [244 (isomer A)] was tested, and the IC50 [1, 7] was less than 1 µM, the “Inhibition rate (%)” value [2] was “B (compounds with an inhibition rate of 20% or more and less than 30% are indicated by the letter “B”)” and the IC50 [3, 8] was 1 to 3 µM.

CCC1CCn2nc(C(=O)N[C@H]3COc4ccc(C#N)cc4C3)cc2O1 (single isomer, unassigned) [Example 92 (isomer A)] was tested, and the IC50 [1, 5] was less than 1 µM, the “Inhibition rate (%)” value [2] was “A (Compounds with an inhibition rate of 30% or more are indicated by the letter “A”)” and the IC50 [3, 6] was no less than 3 µM.

O=C(N[C@H]1COc2ccccc2C1)c1cn2c(n1)CCC(OCC(F)(F)F)C2 (stereo partly drawn) [Example 37, N—((R)-chroman-3-yl)-6-(2,2,2-trifluoroethoxy)-5,6,7,8-tetrahydroimidazo[1,2-a]pyridine-2-carboxamide] was tested, and the IC50 [1, 5] was less than 10 µM, the “Inhibition rate (%)” value [2] was “B (compounds with an inhibition rate of 20% or more and less than 30% are indicated by the letter “B”)” and the IC50 [3, 6] was no less than 3 µM.

O=C(N[C@H]1COc2ccc(C(F)F)cc2C1)c1cn2c(n1)CCC(OCC(F)(F)F)C2 (stereo partly drawn) [Example 40] was tested, and the IC50 [1, 5] was less than 10 µM, the “Inhibition rate (%)” value [2] was “B (compounds with an inhibition rate of 20% or more and less than 30% are indicated by the letter “B”)” and the IC50 [3, 6] was no less than 3 µM.

In the case of O=C(N[C@H]1COc2ccccc2C1)c1cn2c(n1)CNC(c1ccc(F)c(F)c1)C2 (stereo partly drawn) [Example 44], the IC50 [1, 5] is reported as less than 10 µM, the “Inhibition rate (%)” value [2] is reported as “A (Compounds with an inhibition rate of 30% or more are indicated by the letter “A”)” and the IC50 [3, 6] is reported as no less than 3 µM.

In the case of O=C(NCCc1cccc(C(F)(F)F)c1)c1cn2c(n1)CNC(c1ccccc1)C2 (stereo not drawn) [Example 48], the IC50 [1, 5] is reported as less than 10 µM, the “Inhibition rate (%)” value [2] is reported as “A (Compounds with an inhibition rate of 30% or more are indicated by the letter “A”)” and the IC50 [3, 6] is reported as no less than 3 µM.

O=C(c1cn2c(n1)CNC(c1ccccc1)C2)N1CCC(c2cccc(C(F)(F)F)c2)C1 (stereo not drawn) [Example 60] was tested, and the IC50 [1, 5] was less than 10 µM, the “Inhibition rate (%)” value [2] was “B (compounds with an inhibition rate of 20% or more and less than 30% are indicated by the letter “B”)” and the IC50 [3, 6] was no less than 3 µM.

With O=C(c1cn2c(n1)CNC(c1ccccc1)C2)N1CCOC(c2cccc(C(F)(F)F)c2)C1 (stereo not drawn) [Example 61] the IC50 [1, 5] was less than 10 µM, the “Inhibition rate (%)” value [2] was “B (compounds with an inhibition rate of 20% or more and less than 30% are indicated by the letter “B”)” and the IC50 [3, 6] was no less than 3 µM.

With N#Cc1ccc2c(c1)C[C@@H](NC(=O)c1cc3n(n1)CCC(c1ccccc1F)O3)CO2 (stereo partly drawn) [Example 70, N—((R)-6-cyanochroman-3-yl)-5-(2-fluorophenyl)-6,7-dihydro-5H-pyrazolo[5,1-b][1,3]oxazine-2-carboxamide] the IC50 [1, 5] was less than 1 µM, the “Inhibition rate (%)” value [2] was “A (Compounds with an inhibition rate of 30% or more are indicated by the letter “A”)” and the IC50 [3, 6] was 1 to 3 µM. The “50% pain threshold” value [4] was “increased the 50% pain threshold”.

O=C(N[C@H]1COc2ccc(C(F)(F)F)cc2C1)c1nn2c(c1-c1ccccn1)COCC2 [Example 260, (R)-3-(pyridin-2-yl)-N-(6-(trifluoromethyl)chroman-3-yl)-6,7-dihydro-4H-pyrazolo[5,1-c][1,4]oxazine-2-carboxamide] was tested, and the IC50 [1, 7] was less than 1 µM, the “Inhibition rate (%)” value [2] was “A (Compounds with an inhibition rate of 30% or more are indicated by the letter “A”)” and the IC50 [3, 8] was no less than 3 µM.

N#Cc1ccc2c(c1)C[C@@H](NC(=O)c1cc3n(n1)CCN(Cc1ccc(F)cc1)C3)CO2 [Example 290, (R)—N-(6-cyanochroman-3-yl)-5-(4-fluorobenzyl)-4,5,6,7-tetrahydropyrazolo[1,5-a]pyrazine-2-carboxamide hydrochloride] was tested, and the “Inhibition rate (%)” value [2] was “A (Compounds with an inhibition rate of 30% or more are indicated by the letter “A”)” and the “50% pain threshold” value [4] was “increased the 50% pain threshold”.
